Converted amounts (≈) assume the structure as drawn.
Tested on: Helicobacter pylori
Test: activity against Helicobacter pylori (method of Iwahi et al., Columbia agar, growth period of 4 days)
Format: cell-based
Conditions: Columbia agar (Oxoid); for MIC50: 96 h, read-out: Approximate MIC50

MIC50 [µg/mL] | SMILES | Approximate MIC50 [µg/mL]
~0.1 (≈ 0.271 µM) | Cc1c(SCc2ccco2)ccnc1CSc1nc2cccnc2[nH]1 [Compound 1, 2-{[[4-(2-Furylmethylthio)-3-methyl-2-pyridinyl]methyl]thio}-1H-imidazo-[2,3-b]-pyridine] | –
– | CCCC(=O)n1c(SCc2nccc(SCc3ccco3)c2C)nc2ccccc21 [Compound 9, 1-n-Butyroyl-2-{[[4-(2-furylmethylthio)-3-methyl-2-pyridinyl]methyl]thio}benzimidazole] | ~0.1
~0.5 (≈ 1.22 µM) | CC(=O)n1c(SCc2nccc(SCc3ccco3)c2C)nc2ccccc21 [Compound 7, 1-Acetyl-2-{[[4-(2-furylmethylthio)-3-methyl-2-pyridinyl]methyl]thio}benzimidazole] | –
~0.1 (≈ 0.237 µM) | C=CC(=O)n1c(SCc2nccc(SCc3ccco3)c2C)nc2ccccc21 [Compound 8, 1-Acryloyl-2-{[[4-(2-furylmethylthio)-3-methyl-2-pyridinyl]methyl]thio}benzimidazole] | –
~0.5 (≈ 1.12 µM) | Cc1c(SCc2ccco2)ccnc1CSc1nc2ccccc2n1S(C)(=O)=O [Compound 10, 2-{[[4-(2-Furylmethylthio)-3-methyl-2-pyridinyl]methyl]thio}-1-methylsulfonyl-benzimidazole] | –
